# Measured values from US8673370B2, “Method of improving cardiovascular health” (.Kemin Foods, L.C., priority 2006, dated 2014).
# Experiments:
# Type in all cases: in vivo, rat
# normotensive (WKY) rats [1] = assay: Heart rate (HR), daily for 14 days, in conscious catheterized normotensive rats
# Procedure: (§1) Additionally, daily soy isoflavone (SoyLife®, Acatris, Minneapolis, Minn.) supplementation was administered with BCX to both normotensive (WKY) and spontaneously hypertensive (SHR) rats to determine any beneficial hemodynamic contributions of soy to genetic hypertension. Animals receiving daily oral doses of BCX or BCX combined with the soy extract and comparisons of specific hemodynamic parameters (heart rate and blood pressure) were monitored for a period of two weeks in SHR rats and their genetically WKY counterparts. Plasma hydrogen peroxide concentrations were evaluated and show the effects of BCX on reactive oxygen species and their purported contribution to elevations in blood pressure in this hypertensive animal paradigm (Wilcox C. S., Reactive oxygen species: roles in blood pressure and kidney function. Curr Hypertens Rep. 2002 April; 4(2):160-6).
# (§2) 1. Three days prior to the beginning of experiments, femoral arterial and venous catheters were implanted for the measurement of blood pressure and heart rate and for the collection of blood samples for the analysis of plasma CRP and cholesterol. Animals were housed in metabolic cages for chronic daily analysis for the remainder of the protocol.
# (§3) SHR and WKY rats (Harlan, Indianapolis, Ind.) at age 10 weeks and weighing ˜250 g were used as experimental subjects and monitored for a two week period. All experimental protocols were performed in conscious, unrestrained animals. The animals were individually housed in wire mesh cages in temperature-controlled rooms (23° C.) with a 12-hour light/dark cycle. Each animal was allowed free access to isoflavone reduced chow (Harlan, Indianapolis, Ind.) and distilled water throughout the protocol(s). In addition to ad libitum food and water, animals were dosed daily by oral gavage with BCX (1.0 mg/kg, in safflower oil) or BCX+soy (1.0 mg BCX/kg+80 mg isoflavones/kg, in safflower oil). […]
# [2] = system: spontaneously hypertensive (SHR) rats; assay: Mean arterial pressure (MAP), daily for 14 days, in conscious catheterized hypertensive rats
# Procedure: as §1, §2
# (§4) SHR and WKY rats (Harlan, Indianapolis, Ind.) at age 10 weeks and weighing ˜250 g were used as experimental subjects and monitored for a two week period. All experimental protocols were performed in conscious, unrestrained animals. The animals were individually housed in wire mesh cages in temperature-controlled rooms (23° C.) with a 12-hour light/dark cycle. Each animal was allowed free access to isoflavone reduced chow (Harlan, Indianapolis, Ind.) and distilled water throughout the protocol(s). In addition to ad libitum food and water, animals were dosed daily by oral gavage with BCX (1.0 mg/kg, in safflower oil) or BCX+soy (1.0 mg BCX/kg+80 mg isoflavones/kg, in safflower oil). BCX dosage levels were based on the amount of BCX humans consume when eating according to the Dietary Guidelines for Americans: 0.5-1.0 mg per day (United States Department of Health and Human Services and United States Department of Agriculture. Dietary Guidelines for Americans 2005. Jan. 12, 2005. http://www.healthierus.gov/dietaryguidelines/; Centers for Disease Control and Prevention. National Center for Health Statistics. National Health and Nutrition Examination Survey Data 2001-2002. http://www.cdc.gov/nchs/about/major/nhanes/nhanes01-02.htm).
# All surgical procedures were performed in animals anesthetized with sodium pentobarbital (Nembutal®, Abbott Laboratories) at a dose of 50 mg/kg, i.p. In addition, all surgery was performed under sterile conditions in a location in the laboratory dedicated for that purpose and according to those procedures adopted by the IACUC at Des Moines University-Osteopathic Medical Center. The implantations of femoral arterial and venous catheters were performed three days prior to any experimentation. The arterial and venous catheters were constructed from silicone and Tygon® tubing (Saint-Gobain Performance Plastics Corporation). The smaller silicone tubing was placed within the vessel, via the external iliac artery, to minimize tissue irritation and reaction. Normal body temperature was maintained during anesthesia via an electronically maintained dermal pad. The animals were shaved at the top of the head, back of the neck and the inner left leg. The silicone tips were inserted through a 3.0 cm incision made on the inner left leg for cannulation of the internal iliac vein and femoral artery; the arterial catheter was sutured to the leg in a manner preventing occlusion of the catheter during normal rat movement. Excess catheter was directed subcutaneously and externalized through a 2.5 cm incision made in the dermis overlying bregma. The cranial incision was made with a scalpel after which three 0.19″ jeweler's screws were attached to the cranium in a 1.0 cm^2 area which encompasses bregma. […]
# normotensive (WKY) rats [3] = assay: Mean arterial pressure (MAP), daily for 14 days, in conscious catheterized normotensive rats; details: for Blood pressure, Significance, comparison over 14 days: WKY rats
# Procedure: as §1, §2, §3
# [4] = system: spontaneously hypertensive (SHR) rats; assay: Heart rate (HR), daily for 14 days, in conscious catheterized hypertensive rats; details: for Effect on heart rate (in words): vs. control fed food only (SHR-Control)
# Procedure: as §1, §2, §4
# All surgical procedures were performed in animals anesthetized with sodium pentobarbital (Nembutal®, Abbott Laboratories) at a dose of 50 mg/kg, i.p. In addition, all surgery was performed under sterile conditions in a location in the laboratory dedicated for that purpose and according to those procedures adopted by the IACUC at Des Moines University-Osteopathic Medical Center. The implantations of femoral arterial and venous catheters were performed three days prior to any experimentation. The arterial and venous catheters were constructed from silicone and Tygon® tubing (Saint-Gobain Performance Plastics Corporation). The smaller silicone tubing was placed within the vessel, via the external iliac artery, to minimize tissue irritation and reaction. Normal body temperature was maintained during anesthesia via an electronically maintained dermal pad. The animals were shaved at the top of the head, back of the neck and the inner left leg. […]
# [5] = vs. WKY-Saff (safflower oil only)
# [6] = vs. SHR-Control (rat chow only)
# [7] = vs. SHR-Saff (safflower oil only)
structure (smiles),measurement,setting,value
"CC1=C(/C=C/C(C)=C/C=C/C(C)=C/C=C/C=C(C)/C=C/C=C(C)/C=C/C2=C(C)C[C@@H](O)CC2(C)C)C(C)(C)CCC1 [BCX, β-cryptoxanthin]",Effect on heart rate (in words),normotensive (WKY) rats [1]; vs. WKY-Control,statistical decrease in heart rate
same,"Heart rate, Significance, comparison over 14 days",normotensive (WKY) rats [1]; vs. WKY-Control,Yes
same,"Heart rate, Significance, comparison over 14 days",normotensive (WKY) rats [1]; [5],No
same,Days with statistically significant difference in blood pressure,"[2]; vs. SHR controls, p<0.05",4 to 13 days
same,"Blood pressure, Significance, comparison over 14 days",[2]; [6],Yes
same,"Blood pressure, Significance, comparison over 14 days",[2]; [7],No
same,Effect on mean arterial pressure / blood pressure (in words),[2]; vs. control fed food only (SHR-Control),statistically decreased the blood pressure
same,Effect on mean arterial pressure / blood pressure (in words),"[2]; vs. control fed food only (SHR-Control), listed as β-cryptoxanthin",significantly lower
same,Effect on mean arterial pressure / blood pressure (in words),[2]; vs. safflower oil control (SHR-Saff),significantly lower
same,Change in blood pressure (in words),"normotensive (WKY) rats [3]; WKY normotensive rats, over 14 days of supplementation",did not show any significant blood pressure change
same,"Blood pressure, Significance, comparison over 14 days",normotensive (WKY) rats [3]; vs. WKY-Control,No
same,"Blood pressure, Significance, comparison over 14 days",normotensive (WKY) rats [3]; [5],No
same,"Heart rate, Significance, comparison over 14 days",[4]; [6],Yes
same,Days with statistically significant lower heart rate,"[4]; vs. SHR-Control, p<0.05",6 to 13 days
same,"Heart rate, Significance, comparison over 14 days",[4]; [7],No
same,Effect on heart rate (in words),[4],statistically decreased the heart rate
same,Effect on heart rate (in words),[4]; listed as β-cryptoxanthin,significantly lower
